Laboratory results published in the NIST ThermoML archive (doi:10.1021/acs.jced.8b01144).
Numbers after ± are expanded uncertainties.

Conditions: Crystal; DSC

Triple point temperature: 453.4 ± 1.2 K
Structure (SMILES): NC(=O)c1ccc(N)cc1 [4-aminobenzamide]
